Laboratory results from patent publication US11697648B2, “Fused pyrimidine pyridinone compounds as JAK inhibitors” (THERAVANCE BIOPHARMA R&D IP, LLC, priority 2019, dated 2023).

Columns and labels:
[1] = target: JAK1 (Homo sapiens (Human), UniProt P23458); experiment: Biochemical JAK1 kinase assay (LanthaScreen)
In short: (§1)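 GST-JAK + GFP-STAT1 peptide, HEPES pH 7.5/MgCl2/EGTA/Brij-35 buffer; cpd preincubation 1 h RT; ATP start, 1 h RT; stop with 10 mM EDTA + 2 nM Tb-anti-pSTAT1; TR-FRET 520/495. 4-parameter IC50 → pKi (Cheng-Prusoff).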

[2] = target: JAK2 (Homo sapiens (Human), UniProt O60674); experiment: Biochemical JAK2 kinase assay (LanthaScreen)
In short: as §1

[3] = target: JAK3 (Homo sapiens (Human), UniProt P52333); experiment: Biochemical JAK3 kinase assay (LanthaScreen); settings: for JAK3 (pKi)-JAK1 (pKi): selectivity JAK3 over JAK1, difference of pKi
In short: as §1

[4] = target: Tyk2 (Homo sapiens (Human), UniProt P29597); experiment: Biochemical Tyk2 kinase assay (LanthaScreen)
In short: as §1

[5] = tested on: IL-2 stimulated STAT5 phosphorylation in Tall-1 human T cell line (JAK3); experiment: Cellular JAK3 potency assay: inhibition of IL-2 stimulated pSTAT5 in Tall-1 T cells; format: cell-based; settings: IL-2 stimulated pSTAT5, Tall-1 T cells
In short: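 Tall-1 cells, 45,000 per well, preincubated 1 hour with compound at 37 °C, then stimulated 30 minutes with IL-2 at 300 ng/ml final. pSTAT5 (Tyr694/699) in lysates quantified by AlphaLISA SureFire Ultra. pIC50 derived from inhibition curves, given as mean with SD.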

[6] = tested on: Caco-2 cell monolayers; experiment: Caco-2 permeation assay; format: in vitro ADME; settings: 5 μM, A-B direction, with Verapamil (25 μM)
In short: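 Compounds tested at 5 μM in duplicate across Caco-2 monolayers, apical-to-basolateral, with 25 μM verapamil to block P-gp, at 37° C., 5% CO2. Apical and basal samples taken at 0 and 120 min, analysed by LC-MS/MS; Papp (cm/sec) calculated as dQ/(dt×Area×concentration).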

Sequence of JAK2 (O60674 whole entry): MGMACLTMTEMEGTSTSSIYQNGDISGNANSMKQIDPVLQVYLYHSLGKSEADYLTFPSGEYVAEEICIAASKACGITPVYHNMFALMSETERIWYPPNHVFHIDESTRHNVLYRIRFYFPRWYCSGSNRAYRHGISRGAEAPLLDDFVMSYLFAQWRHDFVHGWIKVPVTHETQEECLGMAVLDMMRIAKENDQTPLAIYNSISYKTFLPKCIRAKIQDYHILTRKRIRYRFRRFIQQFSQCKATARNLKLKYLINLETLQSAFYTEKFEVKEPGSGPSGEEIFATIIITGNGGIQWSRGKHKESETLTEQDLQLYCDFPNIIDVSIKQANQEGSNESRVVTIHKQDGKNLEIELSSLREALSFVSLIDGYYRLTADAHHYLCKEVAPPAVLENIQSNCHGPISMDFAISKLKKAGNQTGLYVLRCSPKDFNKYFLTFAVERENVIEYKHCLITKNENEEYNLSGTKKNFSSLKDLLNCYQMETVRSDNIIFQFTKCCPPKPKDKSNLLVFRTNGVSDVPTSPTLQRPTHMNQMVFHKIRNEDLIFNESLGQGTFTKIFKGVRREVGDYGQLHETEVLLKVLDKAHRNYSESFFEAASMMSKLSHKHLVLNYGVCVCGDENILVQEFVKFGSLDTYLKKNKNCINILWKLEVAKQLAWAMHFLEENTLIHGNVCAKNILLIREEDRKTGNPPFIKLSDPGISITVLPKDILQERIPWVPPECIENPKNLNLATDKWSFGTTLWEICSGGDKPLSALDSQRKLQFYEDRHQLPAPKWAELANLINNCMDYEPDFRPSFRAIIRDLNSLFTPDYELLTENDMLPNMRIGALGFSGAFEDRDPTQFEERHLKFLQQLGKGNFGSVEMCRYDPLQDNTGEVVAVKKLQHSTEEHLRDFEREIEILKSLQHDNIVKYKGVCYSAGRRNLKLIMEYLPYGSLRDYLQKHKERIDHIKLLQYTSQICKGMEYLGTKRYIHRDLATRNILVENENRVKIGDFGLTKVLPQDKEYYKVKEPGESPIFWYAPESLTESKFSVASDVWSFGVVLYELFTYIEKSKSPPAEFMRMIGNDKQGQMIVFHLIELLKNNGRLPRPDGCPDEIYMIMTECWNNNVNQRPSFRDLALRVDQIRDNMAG
Sequence of JAK3 (P52333 whole entry): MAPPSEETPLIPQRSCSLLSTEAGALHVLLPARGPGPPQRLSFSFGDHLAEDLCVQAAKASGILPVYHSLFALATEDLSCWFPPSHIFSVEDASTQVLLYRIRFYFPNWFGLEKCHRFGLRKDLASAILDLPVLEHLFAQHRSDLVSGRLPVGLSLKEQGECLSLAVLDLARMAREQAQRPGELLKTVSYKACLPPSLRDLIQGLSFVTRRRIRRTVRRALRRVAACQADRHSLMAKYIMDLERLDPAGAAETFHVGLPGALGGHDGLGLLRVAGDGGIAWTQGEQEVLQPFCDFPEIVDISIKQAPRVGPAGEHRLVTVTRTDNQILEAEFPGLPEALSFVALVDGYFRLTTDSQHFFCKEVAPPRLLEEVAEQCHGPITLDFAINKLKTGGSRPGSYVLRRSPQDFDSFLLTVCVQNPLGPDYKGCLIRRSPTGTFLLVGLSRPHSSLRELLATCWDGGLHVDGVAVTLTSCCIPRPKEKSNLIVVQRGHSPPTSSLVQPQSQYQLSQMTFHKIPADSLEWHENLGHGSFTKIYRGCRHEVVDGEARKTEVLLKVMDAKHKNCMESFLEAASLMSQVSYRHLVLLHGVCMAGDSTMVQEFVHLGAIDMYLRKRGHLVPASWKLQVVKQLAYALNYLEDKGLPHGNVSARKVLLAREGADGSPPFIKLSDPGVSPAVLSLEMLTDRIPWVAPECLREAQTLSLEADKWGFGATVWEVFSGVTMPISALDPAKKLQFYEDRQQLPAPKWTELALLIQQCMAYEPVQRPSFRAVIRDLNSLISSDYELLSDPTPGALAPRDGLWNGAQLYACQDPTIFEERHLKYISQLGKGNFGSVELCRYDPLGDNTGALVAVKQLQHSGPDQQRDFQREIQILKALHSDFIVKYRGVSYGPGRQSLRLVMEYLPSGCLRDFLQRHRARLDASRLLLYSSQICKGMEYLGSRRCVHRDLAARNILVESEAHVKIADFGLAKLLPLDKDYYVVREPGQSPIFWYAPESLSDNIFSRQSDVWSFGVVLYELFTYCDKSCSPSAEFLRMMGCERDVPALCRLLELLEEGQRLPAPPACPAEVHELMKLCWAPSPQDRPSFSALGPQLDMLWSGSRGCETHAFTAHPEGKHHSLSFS
Sequence of Tyk2 (P29597 whole entry): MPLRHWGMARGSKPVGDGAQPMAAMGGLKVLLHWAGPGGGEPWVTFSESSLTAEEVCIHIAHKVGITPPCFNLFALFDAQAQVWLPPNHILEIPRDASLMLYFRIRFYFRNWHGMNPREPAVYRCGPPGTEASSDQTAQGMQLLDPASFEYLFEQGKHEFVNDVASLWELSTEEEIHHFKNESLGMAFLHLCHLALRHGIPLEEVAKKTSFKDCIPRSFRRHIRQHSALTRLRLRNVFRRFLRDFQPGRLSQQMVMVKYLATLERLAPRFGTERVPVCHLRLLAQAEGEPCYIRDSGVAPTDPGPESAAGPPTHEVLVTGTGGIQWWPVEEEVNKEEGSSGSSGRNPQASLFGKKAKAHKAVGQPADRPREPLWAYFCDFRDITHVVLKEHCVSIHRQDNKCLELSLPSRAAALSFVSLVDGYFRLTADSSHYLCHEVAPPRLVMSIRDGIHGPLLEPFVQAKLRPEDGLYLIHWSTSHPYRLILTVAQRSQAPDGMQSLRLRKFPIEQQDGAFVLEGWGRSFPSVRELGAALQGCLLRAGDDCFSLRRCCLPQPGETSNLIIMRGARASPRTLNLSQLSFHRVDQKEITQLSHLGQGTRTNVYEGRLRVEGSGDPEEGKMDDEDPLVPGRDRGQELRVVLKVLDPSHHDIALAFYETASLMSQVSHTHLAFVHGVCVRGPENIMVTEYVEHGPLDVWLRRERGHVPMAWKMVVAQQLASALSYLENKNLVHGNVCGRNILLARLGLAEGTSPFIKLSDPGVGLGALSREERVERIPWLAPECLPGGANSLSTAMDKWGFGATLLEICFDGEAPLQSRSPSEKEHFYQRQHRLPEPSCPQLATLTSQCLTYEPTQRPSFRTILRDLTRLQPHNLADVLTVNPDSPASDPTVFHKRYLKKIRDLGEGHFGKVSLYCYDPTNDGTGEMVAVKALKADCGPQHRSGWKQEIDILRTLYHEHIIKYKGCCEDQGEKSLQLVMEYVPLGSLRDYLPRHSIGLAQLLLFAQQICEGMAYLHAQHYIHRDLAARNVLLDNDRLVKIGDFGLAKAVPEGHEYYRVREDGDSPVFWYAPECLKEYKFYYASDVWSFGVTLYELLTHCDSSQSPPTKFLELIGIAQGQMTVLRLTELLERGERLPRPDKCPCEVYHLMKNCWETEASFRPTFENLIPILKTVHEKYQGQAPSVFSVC
Sequence of JAK1 (P23458 whole entry): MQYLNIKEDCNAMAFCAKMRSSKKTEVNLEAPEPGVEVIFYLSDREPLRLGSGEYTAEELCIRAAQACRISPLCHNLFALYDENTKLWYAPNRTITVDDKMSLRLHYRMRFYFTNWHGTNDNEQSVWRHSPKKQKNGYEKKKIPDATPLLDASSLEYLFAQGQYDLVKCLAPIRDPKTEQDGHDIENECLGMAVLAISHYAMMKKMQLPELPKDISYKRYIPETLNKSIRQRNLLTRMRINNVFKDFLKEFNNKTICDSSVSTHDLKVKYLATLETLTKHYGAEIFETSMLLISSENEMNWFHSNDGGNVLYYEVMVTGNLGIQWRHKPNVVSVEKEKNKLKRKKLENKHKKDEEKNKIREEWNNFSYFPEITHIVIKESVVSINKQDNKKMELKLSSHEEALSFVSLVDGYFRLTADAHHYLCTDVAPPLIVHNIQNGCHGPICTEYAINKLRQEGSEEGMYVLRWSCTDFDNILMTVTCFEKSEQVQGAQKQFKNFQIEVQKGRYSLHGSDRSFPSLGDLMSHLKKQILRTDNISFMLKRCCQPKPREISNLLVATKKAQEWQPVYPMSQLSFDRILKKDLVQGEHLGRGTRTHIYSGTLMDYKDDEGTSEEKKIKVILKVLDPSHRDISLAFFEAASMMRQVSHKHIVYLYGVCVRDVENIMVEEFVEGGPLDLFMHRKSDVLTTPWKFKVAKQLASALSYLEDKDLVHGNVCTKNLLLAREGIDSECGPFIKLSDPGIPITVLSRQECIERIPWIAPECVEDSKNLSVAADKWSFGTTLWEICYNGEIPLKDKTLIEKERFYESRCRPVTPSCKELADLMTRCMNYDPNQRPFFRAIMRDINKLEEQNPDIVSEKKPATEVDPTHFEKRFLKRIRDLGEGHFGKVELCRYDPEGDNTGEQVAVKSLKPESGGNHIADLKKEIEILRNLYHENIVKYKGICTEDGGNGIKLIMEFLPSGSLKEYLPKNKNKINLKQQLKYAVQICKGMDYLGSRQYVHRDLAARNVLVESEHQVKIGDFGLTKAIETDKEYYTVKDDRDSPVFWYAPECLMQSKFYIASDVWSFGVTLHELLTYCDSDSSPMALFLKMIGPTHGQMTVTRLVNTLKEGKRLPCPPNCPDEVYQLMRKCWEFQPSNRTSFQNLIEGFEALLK

| SMILES | JAK 1 (pKi) [1] | JAK 2 (pKi) [2] | JAK 3 (pKi) [3] | JAK3 (pKi)-JAK1 (pKi) [3] | Tyk 2 (pKi) [4] | Tall-1 (pIC50) [5] | Caco Kp [6] |
| --- | --- | --- | --- | --- | --- | --- | --- |
| C=CC(=O)N1CCN(CCn2c(=O)ccc3cnc(Nc4ccc(N5CCN(C(=O)CCSC)CC5)cc4)nc32)[C@@H](CC)C1 [Example 192] | E (E represents a pKi value of 7 or below (Ki of 100 nM or above)) | E (E represents a pKi value of 7 or below (Ki of 100 nM or above)) | B (B represents pKi value between 9 and 10 (Ki between 1 nM and 0.1 nM)) | A (A represents a value of 3 or above) | E (E represents a pKi value of 7 or below (Ki of 100 nM or above)) | B (B represents a pC50 value between 6.7 (included) and 7.5 (IC50 between 200 nM and 32 nM)) | C (C represents a value between 10×10^−6 and 30×10^−6 cm/sec) |
| C=CC(=O)N1CCN(CCn2c(=O)ccc3cnc(Nc4ccc(N5CCN(C)CC5)cc4)nc32)[C@@H](CO)C1 [Example 193] | E (E represents a pKi value of 7 or below (Ki of 100 nM or above)) | E (E represents a pKi value of 7 or below (Ki of 100 nM or above)) | B (B represents pKi value between 9 and 10 (Ki between 1 nM and 0.1 nM)) | A (A represents a value of 3 or above) | E (E represents a pKi value of 7 or below (Ki of 100 nM or above)) | B (B represents a pC50 value between 6.7 (included) and 7.5 (IC50 between 200 nM and 32 nM)) | A (A represents a value below 5×10^−6 cm/sec) |
| C=CC(=O)N1CCN(CCn2c(=O)ccc3cnc(Nc4cnn(Cc5ccccc5)c4)nc32)[C@@H](CC)C1 [Example 194] | E (E represents a pKi value of 7 or below (Ki of 100 nM or above)) | E (E represents a pKi value of 7 or below (Ki of 100 nM or above)) | B (B represents pKi value between 9 and 10 (Ki between 1 nM and 0.1 nM)) | A (A represents a value of 3 or above) | E (E represents a pKi value of 7 or below (Ki of 100 nM or above)) | B (B represents a pC50 value between 6.7 (included) and 7.5 (IC50 between 200 nM and 32 nM)) | C (C represents a value between 10×10^−6 and 30×10^−6 cm/sec) |
| C=CC(=O)N1CCN(CCn2c(=O)ccc3cnc(Nc4cnn(C5CCN(C)CC5)c4)nc32)[C@@H](CC)C1 [Example 196] | E (E represents a pKi value of 7 or below (Ki of 100 nM or above)) | E (E represents a pKi value of 7 or below (Ki of 100 nM or above)) | B (B represents pKi value between 9 and 10 (Ki between 1 nM and 0.1 nM)) | A (A represents a value of 3 or above) | E (E represents a pKi value of 7 or below (Ki of 100 nM or above)) | B (B represents a pC50 value between 6.7 (included) and 7.5 (IC50 between 200 nM and 32 nM)) | A (A represents a value below 5×10^−6 cm/sec) |
| C=CC(=O)N1CCN(CCn2c(=O)ccc3cnc(Nc4cnn(C5CCOCC5)c4)nc32)[C@@H](CC)C1 [Example 197] | E (E represents a pKi value of 7 or below (Ki of 100 nM or above)) | E (E represents a pKi value of 7 or below (Ki of 100 nM or above)) | B (B represents pKi value between 9 and 10 (Ki between 1 nM and 0.1 nM)) | A (A represents a value of 3 or above) | E (E represents a pKi value of 7 or below (Ki of 100 nM or above)) | B (B represents a pC50 value between 6.7 (included) and 7.5 (IC50 between 200 nM and 32 nM)) | A (A represents a value below 5×10^−6 cm/sec) |
| C=CC(=O)N1CCN(CCn2c(=O)ccc3cnc(Nc4ccc(N5CCN(C(=O)C[S+]([O-])CC)CC5)cc4)nc32)[C@@H](CC)C1 (some centres unmarked) [Example 198] | E (E represents a pKi value of 7 or below (Ki of 100 nM or above)) | E (E represents a pKi value of 7 or below (Ki of 100 nM or above)) | B (B represents pKi value between 9 and 10 (Ki between 1 nM and 0.1 nM)) | A (A represents a value of 3 or above) | E (E represents a pKi value of 7 or below (Ki of 100 nM or above)) | C (C represents a pIC50 value between 6 and 6.7 (IC50 between 1 μM and 200 nM)) | A (A represents a value below 5×10^−6 cm/sec) |
| C=CC(=O)N1CCN(C(C)Cn2c(=O)ccc3cnc(Nc4ccc(N5CCN(C(C)=O)CC5)cc4)nc32)CC1 (centres unmarked) [Example 201] | E (E represents a pKi value of 7 or below (Ki of 100 nM or above)) | E (E represents a pKi value of 7 or below (Ki of 100 nM or above)) | B (B represents pKi value between 9 and 10 (Ki between 1 nM and 0.1 nM)) | A (A represents a value of 3 or above) | E (E represents a pKi value of 7 or below (Ki of 100 nM or above)) | B (B represents a pC50 value between 6.7 (included) and 7.5 (IC50 between 200 nM and 32 nM)) | A (A represents a value below 5×10^−6 cm/sec) |
| C=CC(=O)N1CCN(CCn2c(=O)ccc3cnc(Nc4cnn(CCF)c4)nc32)[C@@H](CC)C1 [Example 202] | E (E represents a pKi value of 7 or below (Ki of 100 nM or above)) | E (E represents a pKi value of 7 or below (Ki of 100 nM or above)) | B (B represents pKi value between 9 and 10 (Ki between 1 nM and 0.1 nM)) | A (A represents a value of 3 or above) | E (E represents a pKi value of 7 or below (Ki of 100 nM or above)) | B (B represents a pC50 value between 6.7 (included) and 7.5 (IC50 between 200 nM and 32 nM)) | A (A represents a value below 5×10^−6 cm/sec) |
| C=CC(=O)N1CCN(CCn2c(=O)ccc3cnc(Nc4cnn(C(C)(C)COC)c4)nc32)[C@@H](CC)C1 [Example 203] | E (E represents a pKi value of 7 or below (Ki of 100 nM or above)) | E (E represents a pKi value of 7 or below (Ki of 100 nM or above)) | B (B represents pKi value between 9 and 10 (Ki between 1 nM and 0.1 nM)) | A (A represents a value of 3 or above) | E (E represents a pKi value of 7 or below (Ki of 100 nM or above)) | B (B represents a pC50 value between 6.7 (included) and 7.5 (IC50 between 200 nM and 32 nM)) | C (C represents a value between 10×10^−6 and 30×10^−6 cm/sec) |
| C=CC(=O)N1CCN(CCn2c(=O)ccc3cnc(Nc4ccc(N5CCN(C(C)C)CC5)cc4)nc32)CC1 [Example 205] | E (E represents a pKi value of 7 or below (Ki of 100 nM or above)) | E (E represents a pKi value of 7 or below (Ki of 100 nM or above)) | B (B represents pKi value between 9 and 10 (Ki between 1 nM and 0.1 nM)) | A (A represents a value of 3 or above) | E (E represents a pKi value of 7 or below (Ki of 100 nM or above)) | A (A represents a pIC50 value≥7.5 (IC50≤32 nM)) | B (B represents a value between 5×10^−6 and 10×10^−6 cm/sec) |
| C=CC(=O)N1CCN(CCn2c(=O)ccc3cnc(Nc4ccc(N5CCN(C(C)CC)CC5)cc4)nc32)CC1 (centres unmarked) [Example 206] | E (E represents a pKi value of 7 or below (Ki of 100 nM or above)) | E (E represents a pKi value of 7 or below (Ki of 100 nM or above)) | A (A represents a pKi value≥10 (Ki≤0.1 nM)) | A (A represents a value of 3 or above) | E (E represents a pKi value of 7 or below (Ki of 100 nM or above)) | A (A represents a pIC50 value≥7.5 (IC50≤32 nM)) | C (C represents a value between 10×10^−6 and 30×10^−6 cm/sec) |
